# Read-outs that look alike come from different tables or passages of the source.
# Key:
# Type in all cases: physicochemical
# [1] = Determination of moisture contents with KF moisture meter at different time points (hygroscopicity); conditions: for moisture content of the complex compared with the acid, the sodium salt and their mixture: summary of Tables 2A-2C; for moisture content (%): temperature 23° C., humidity 92.5%; for hygroscopicity of the solid acid: easy to deliquesce
# From the text: For R-3-hydroxybutyric acid, sodium R-3-hydroxybutyrate, Mixture of R-3-hydroxybutyric acid and sodium R-3-hydroxybutyrate, as well as R-3-hydroxybutyric acid·sodium R-3-hydroxybutyrate complex of Examples 1-6, under a certain condition, KF moisture meter was used to determine the moisture contents at different time points.
# (§1) For 3-hydroxybutyric acid, sodium 3-hydroxybutyrate, mixture of 3-hydroxybutyric acid and sodium 3-hydroxybutyrate, as well as 3-hydroxybutyric acid·sodium 3-hydroxybutyrate complex of Examples 7-9, under a certain condition, KF moisture meter was used to determine the moisture contents at different time points.
# as §1, with “S-3-hydroxybutyric” for “3-hydroxybutyric”, “S-3-hydroxybutyrate,” for “3-hydroxybutyrate,”, “S-3-hydroxybutyrate” for “3-hydroxybutyrate”, “10-12,” for “7-9,”
# [2] = Stability of the solids at different temperatures
# Experimental: For R-3-hydroxybutyric acid, sodium R-3-hydroxybutyrate, mixture of R-3-hydroxybutyric acid and sodium R-3-hydroxybutyrate, as well as R-3-hydroxybutyric acid·sodium R-3-hydroxybutyrate complex of Examples 1-6, the stability was measured at 60° C., 70° C. and 80° C., and the experimental results are shown in Table 3A.
# For 3-hydroxybutyric acid, sodium 3-hydroxybutyrate, mixture of 3-hydroxybutyric acid and sodium 3-hydroxybutyrate, as well as 3-hydroxybutyric acid·sodium 3-hydroxybutyrate complex of Examples 7-9, the stability was measured at 60° C., 70° C. and 80° C., and the experimental results are shown in Table 3B.
# For S-3-hydroxybutyric acid, sodium S-3-hydroxybutyrate, mixture of S-3-hydroxybutyric acid and sodium S-3-hydroxybutyrate, as well as S-3-hydroxybutyric acid·sodium S-3-hydroxybutyrate complex of Examples 10-12, the stability was measured at 60° C., 70° C. and 80° C., and the experimental results are shown in Table 3C.
# [3] = Stability of the solids at different temperatures; remark: listed apart in the source
Structure (SMILES),"hygroscopicity of the complex compared with the acid, the sodium salt and their mixture [1]","moisture content of the complex compared with the acid, the sodium salt and their mixture [1]",moisture content (%) ([1]; 30 min),moisture content (%) ([1]; 1 h),moisture content (%) ([1]; 2 h),moisture content (%) ([1]; 4 h),moisture content (%) ([1]; 6 h),moisture content (%) ([1]; 7 h),moisture content (%) ([1]; 11 h),moisture content (%) ([1]; 22 h),Stability [2],stability of the complex [2],hygroscopicity of the solid acid [1],Stability ([2]; 60° C.),Stability ([2]; 70° C.),Stability ([2]; 80° C.),Stability ([3]; 30° C.),Stability ([3]; 50° C.),Stability ([3]; 40° C.)
CC(O)CC(=O)O (stereo not shown) [3-hydroxybutyric acid • sodium 3-hydroxybutyrate complex] [3-hydroxybutyric acid·sodium 3-hydroxybutyrate],obviously superior,significantly lower,0.61,1.18,2.05,3.38,4.99,5.52,8.73,17.63,unchanged,very high,,,,,,,
CC(O)CC(=O)O (stereo not shown) [3-hydroxybutyric acid],,,1.32,2.37,4.15,6.59,9.68,10.71,17.33,33.51,,,strong hygroscopicity,,,,,,
C[C@@H](O)CC(=O)O [R-3-hydroxybutyric acid • sodium R-3-hydroxybutyrate complex] [R-3-hydroxybutyric acid·sodium R-3-hydroxybutyrate],obviously superior,significantly lower,0.54,1.02,1.96,3.26,4.89,5.39,8.65,17.45,unchanged,very high,,,,,,,
C[C@@H](O)CC(=O)O [R-3-hydroxybutyric acid],,,1.13,2.25,3.96,6.46,9.52,10.56,17.22,33.34,,,strong hygroscopicity,,,,,,
C[C@H](O)CC(=O)O [S-3-hydroxybutyric acid],,,1.23,2.28,4.05,6.32,9.53,10.62,17.08,32.95,,,strong hygroscopicity,melted,melted,melted,unchanged,melted,
C[C@H](O)CC(=O)O [S-3-hydroxybutyric acid·sodium S-3-hydroxybutyrate],obviously superior,significantly lower,0.71,1.38,1.85,3.28,4.79,5.32,8.43,16.93,unchanged,very high,,,,,,,
"CC(O)CC(=O)[O-].[Na+] (stereo not shown) [Sodium 3-hydroxybutyrate, sodium 3-hydroxybutyrate]",,,1.15,2.19,3.62,5.35,7.54,8.35,12.86,24.95,unchanged,,,,,,,,
"C[C@@H](O)CC(=O)[O-].[Na+] [Sodium R-3-hydroxybutyrate, sodium R-3-hydroxybutyrate]",,,1.04,2.01,3.39,5.23,7.35,8.04,12.68,24.68,unchanged,,,,,,,,
"C[C@H](O)CC(=O)[O-].[Na+] [Sodium S-3-hydroxybutyrate, sodium S-3-hydroxybutyrate]",,,1.09,2.07,3.49,5.32,7.46,8.15,12.73,24.53,,,,unchanged,unchanged,unchanged,unchanged,unchanged,unchanged
